Results from the supplement of paper PMC10307832.

Experiments:
Test in all cases: relative viability (nuclei count vs DMSO), 5 days (fraction); higher = more cells survive
CUDC-101 + Tozasertib = compound: C#Cc1cccc(Nc2ncnc3cc(OC)c(OCCCCCCC(=O)NO)cc23)c1 [CUDC-101] + Cc1cc(Nc2cc(N3CCN(C)CC3)nc(Sc3ccc(NC(=O)C4CC4)cc3)n2)n[nH]1 [Tozasertib] (partner 0.1 µM)
Outline: (§1)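 Nuclei were stained with Hoechst during a one-step fixation (final 0.05% Triton X-100, 1% formaldehyde, 1 ug/ml Hoechst) carried out 5 days after dosing, then counted on 4× images. The cells, lung cancer lines in 1536-well plates, had been dosed by pin tool the day after seeding with one drug alone or a fixed anchor-drug dose plus five library-drug doses (not always all listed) in √10 steps. Relative viability is the nuclei count in treated wells divided by that in vehicle wells, and each value is the median of duplicate plates.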

NVP-TAE684 + Olaparib = compound: COc1cc(N2CCC(N3CCN(C)CC3)CC2)ccc1Nc1ncc(Cl)c(Nc2ccccc2S(=O)(=O)C(C)C)n1 [NVP-TAE684] + O=C(c1cc(Cc2n[nH]c(=O)c3ccccc23)ccc1F)N1CCN(C(=O)C2CC2)CC1 [Olaparib] (partner 8 µM)
Outline: as §1

CUDC-101 + Linsitinib = compound: C#Cc1cccc(Nc2ncnc3cc(OC)c(OCCCCCCC(=O)NO)cc23)c1 [CUDC-101] + C[C@]1(O)C[C@@H](c2nc(-c3ccc4ccc(-c5ccccc5)nc4c3)c3c(N)nccn32)C1 [Linsitinib] (partner 1 µM)
Outline: as §1

Vandetanib + Pictilisib = compound: COc1cc2/c(=N/c3ccc(Br)cc3F)nc[nH]c2cc1OCC1CCN(C)CC1 [Vandetanib] + CS(=O)(=O)N1CCN(Cc2cc3nc(-c4cccc5[nH]ncc45)nc(N4CCOCC4)c3s2)CC1 [Pictilisib] (partner 1 µM)
Outline: as §1

Row | Cell Line | relative viability (CUDC-101 + Tozasertib; first compound 0.01 µM) | relative viability (CUDC-101 + Tozasertib; first compound 0.03162 µM) | relative viability (CUDC-101 + Tozasertib; first compound 0.1 µM) | relative viability (CUDC-101 + Tozasertib; first compound 0.3162 µM) | relative viability (CUDC-101 + Tozasertib; first compound 1 µM) | relative viability (NVP-TAE684 + Olaparib; first compound 0.2 µM) | relative viability (NVP-TAE684 + Olaparib; first compound 0.6325 µM) | relative viability (NVP-TAE684 + Olaparib; first compound 2 µM) | relative viability (CUDC-101 + Linsitinib; first compound 0.01 µM) | relative viability (CUDC-101 + Linsitinib; first compound 0.03162 µM) | relative viability (CUDC-101 + Linsitinib; first compound 0.1 µM) | relative viability (CUDC-101 + Linsitinib; first compound 0.3162 µM) | relative viability (CUDC-101 + Linsitinib; first compound 1 µM) | relative viability (Vandetanib + Pictilisib; first compound 0.02 µM) | relative viability (Vandetanib + Pictilisib; first compound 0.06325 µM) | relative viability (Vandetanib + Pictilisib; first compound 0.2 µM) | relative viability (Vandetanib + Pictilisib; first compound 0.6325 µM) | relative viability (Vandetanib + Pictilisib; first compound 2 µM)
1 | EMC-BAC-2 | 0.312 | 0.208 | 0.251 | 0.209 | 0.199 | 0.506 | 0.447 | 0.35 | 0.845 | 0.867 | 0.852 | 0.765 | 0.634 | 0.556 | 0.51 | 0.358 | 0.484 | 0.538
2 | NCI-H1437 | 0.41 | 0.332 | 0.41 | 0.429 | 0.361 | 0.65 | 0.663 | 0.523 | 1.16 | 0.842 | 0.957 | 0.983 | 0.4 | 0.463 | 0.419 | 0.432 | 0.357 | 0.481
3 | NCI-H1944 | 0.268 | 0.213 | 0.275 | 0.236 | 0.17 | 0.373 | 0.421 | 0.419 | 1.27 | 0.898 | 1.14 | 1.05 | 0.849 | 0.328 | 0.345 | 0.339 | 0.345 | 0.334
4 | NCI-H838 | 0.265 | 0.266 | 0.329 | 0.265 | 0.264 | 0.737 | 0.611 | 0.252 | 1.08 | 0.85 | 1.08 | 1.06 | 0.898 | 0.461 | 0.357 | 0.457 | 0.426 | 0.415
5 | HCC-827 | 0.381 | 0.236 | 0.143 | 0.111 | 0.101 | 0.697 | 0.585 | 0.668 | 0.965 | 0.537 | 0.257 | 0.203 | 0.205 | 0.816 | 1.02 | 0.864 | 0.664 | 0.355
6 | NCI-H2342 | 0.592 | 0.55 | 0.474 | 0.437 | 0.453 | 0.419 | 0.427 | 0.3 |  |  |  |  |  |  |  |  |  | 
7 | LOU-NH91 | 0.703 | 0.548 | 0.472 | 0.411 | 0.305 | 0.888 |  | 0.657 | 0.978 | 0.634 | 0.564 | 0.599 | 0.453 | 0.528 | 0.565 | 0.508 | 0.524 | 0.515
8 | NCI-H1563 |  |  |  |  |  |  |  |  | 1.22 | 1.06 | 1.4 | 1.18 | 1.11 | 0.62 | 0.707 | 0.623 | 0.656 | 0.657
9 | EBC-1 |  |  |  |  |  | 0.713 | 0.661 | 0.55 | 0.954 | 0.904 | 0.766 | 0.762 | 0.623 | 0.465 | 0.345 | 0.404 | 0.359 | 0.242
